Assay results: publication PMC7356956, “1-(1-Arylethylpiperidin-4-yl)thymine Analogs as Antimycobacterial TMPK Inhibitors” (Molecules, 2020)
Values after ≈ are worked out from the molar mass of the structure shown. Where two headings read alike, the source gives them in different places.

Columns and labels:
MtbTMPK [1] = target: T1, MtbTMPK (Mycobacterium tuberculosis, UniProt P9WKE1); experiment: MtbTMPK enzymatic assay (spectrophotometric coupled assay); type: biochemical; details: for MtbTMPK inhibitory potency, in words: qualitative statement, compared with 3
Procedure: The enzymatic assay was performed as previously reported on the recombinant purified MtbTMPK [14, 33]. As described by Blondin et al., compounds were evaluated by a serial dilution method using the spectrophotometric assay at fixed concentrations of adenosine triphosphate (ATP) (0.5 mM) and thymidine monophosphate (dTMP; 0.05 mM). The reaction medium includes 50-mM Tris-HCl; pH 7.4; 50-mM KCl; 2-mM MgCl2; 0.2-mM nicotinamide adenine dinucleotide (NADH); 1-mM phosphoenol pyruvate and 2 units each of coupling enzymes (lactate dehydrogenase, pyruvate kinase and nucleoside diphosphate kinase). From the experimental data, the IC50 value was calculated using KaleidaGraph 4.5.3.

[2] = tested on: M. tuberculosis H37Rv (ATCC 27294); experiment: In vitro antituberculosis assay (MIC, broth microdilution); type: cell-based, Mycobacterium tuberculosis; details: for MIC: read-out: MIC (H37Rv)
[3] = In vitro cytotoxicity assay on MRC-5 fibroblasts; type: cell-based; details: human
Procedure: (§1) The cytotoxicity of compounds on MRC-5 fibroblasts was performed exactly as previously reported.

MRC-5 fibroblasts = experiment: In vitro cytotoxicity assay on MRC-5 fibroblasts; type: cell-based; details: for SI (selectivity index): IC50 (MRC-5)/MIC (H37Rv)
Procedure: as §1

MtbTMPK [4] = target: T1, MtbTMPK; set-up: method as in PMID 29510037, PMID 27614917
[5] = tested on: M. tuberculosis H37Rv (ATCC 27294); details: previously reported values; cited from earlier work
[6] = ATP 0.5 mM, dTMP 0.05 mM, mean ± SD of at least two measurements, NI: no inhibition at a concentration of 0.2 mM, read-out: IC50 (MtbTMPK)
[7] = cytotoxicity against MRC-5 fibroblasts, read-out: IC50 (MRC-5)
[8] = Mycobacterium tuberculosis, minimum concentration required to inhibit >99% growth of M. tuberculosis H37Rv in liquid culture, 7–14 days

T1 sequence (P9WKE1 whole entry, looked up): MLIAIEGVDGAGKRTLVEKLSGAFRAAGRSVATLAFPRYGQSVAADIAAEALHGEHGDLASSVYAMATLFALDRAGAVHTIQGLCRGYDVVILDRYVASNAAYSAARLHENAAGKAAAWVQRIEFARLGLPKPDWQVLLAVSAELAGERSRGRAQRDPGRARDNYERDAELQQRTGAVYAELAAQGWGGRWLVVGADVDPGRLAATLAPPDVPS

Compound | IC50 (MtbTMPK [1]; [6]) [µM] | MtbTMPK inhibitory potency, in words (MtbTMPK [1]) | MIC ([2]; Mycobacterium tuberculosis) [µM] | IC50 [3, 7] [µM] | SI (selectivity index) (MRC-5 fibroblasts) | also measured
Cc1cn(C2CCN(CCc3ccc(-c4ccccc4)cc3)CC2)c(=O)[nH]c1=O [Compound 21b, 1-(1-(2-([1,1’-Biphenyl]-4-yl)ethyl)piperidin-4-yl)-5-methylpyrimidine-2,4(1H,3H)-dione] | > 200 | complete loss of enzyme inhibitory potency | > 50 | 22.2 |  | 
Cc1cn(C2CCN(CCc3cccc(OCc4ccccc4Cl)c3)CC2)c(=O)[nH]c1=O [Compound 21o, 1-(1-(3-((2-Chlorobenzyl)oxy)phenethyl)piperidin-4-yl)-5-methylpyrimidine-2,4(1H,3H)-dione] | 70 ± 9 |  | 19 (≈ 8.63 µg/mL) | 7.08 | 0.37 | 
Cc1cn(C2CCN(CCc3cccc(Oc4cccc(Cl)c4)c3)CC2)c(=O)[nH]c1=O [Compound 21j, 1-(1-(3-(3-Chlorophenoxy)phenethyl)piperidin-4-yl)-5-methylpyrimidine-2,4(1H,3H)-dione] |  | significant improvement in the inhibitory potency | 19 (≈ 8.36 µg/mL) | 25.2 | 1.33 | improvement of MtbTMPK inhibitory potency relative to 3 (MtbTMPK [1]; compared with compound 3): three; improvement of H37Rv growth inhibitory activity relative to 3 ([2]; compared with compound 3): two
c1ccc(Oc2cccc(CCN3CCC(c4ccccc4)CC3)c2)cc1 [Compound 27, 1-(3-Phenoxyphenethyl)-4-phenylpiperidine] |  | complete loss of the inhibitory potency |  |  | 1.29 | IC50 (MtbTMPK [1]; read-out: IC50 (MtbTMPK), ATP 0.5 mM, dTMP 0.05 mM, mean ± SD of at least two measurements, NI: no inhibition at a concentration of 0.2 mM): > 200 µM; MIC [2, 8]: 6.25 µM (≈ 2.23 µg/mL); antimycobacterial activity (H37Rv), in words ([2]; qualitative statement): potent antimycobacterial activity; IC50 [3]: 8.06 µM; cytotoxicity (MRC-5), in words (MRC-5 fibroblasts; qualitative statement, relative to antimycobacterial activity): equipotent cytotoxicity
Cc1cn(C2CCN(CCc3cccc(Oc4ccccc4)c3)CC2)c(=O)[nH]c1=O [Compound 3, reference compound] | 17 ± 2 |  | 37 (≈ 15 µg/mL) | > 64 | >1.73 | IC50 (MtbTMPK [4]; previously reported values; read-out: IC50 (MtbTMPK), reported; cited from earlier work): 11 µM; MIC (H37Rv), reported [5]: 37 µM (≈ 15 µg/mL)
Cc1cn(C2CCN(CCc3cccc(Oc4ccc([N+](=O)[O-])cc4)c3)CC2)c(=O)[nH]c1=O [Compound 21l, 5-Methyl-1-(1-(3-(4-nitrophenoxy)phenethyl)piperidin-4-yl)pyrimidine-2,4(1H,3H)-dione] | 91 ± 10 | significant drop in MtbTMPK inhibitory potency | 37 (≈ 16.7 µg/mL) | > 64 | >1.73 | 
Cc1cn(C2CCN(C(=O)Cc3cccc(Oc4ccccc4)c3)CC2)c(=O)[nH]c1=O [Compound 26, 5-Methyl-1-(1-(2-(3-phenoxyphenyl)acetyl)piperidin-4-yl)pyrimidine-2,4(1H,3H)-dione] |  | weak enzyme inhibition |  |  |  | IC50 (MtbTMPK [1]): 230 ± 63 µM; MIC [2, 8]: > 50 µM; IC50 [3]: > 64 µM
Cc1cn(C2CCN(CCc3ccccc3Oc3ccccc3)CC2)c(=O)[nH]c1=O [Compound 21c, 5-Methyl-1-(1-(2-phenoxyphenethyl)piperidin-4-yl)pyrimidine-2,4(1H,3H)-dione] | 100 ± 15 | negative effect on the inhibitory activity | 50 (≈ 20.3 µg/mL) | 26.8 | 0.54 | 
Cc1cn(C2CCN(CCc3cccc(Oc4ccc(C#N)cc4)c3)CC2)c(=O)[nH]c1=O [Compound 21k, 4-(3-(2-(4-(5-Methyl-2,4-dioxo-3,4-dihydropyrimidin-1(2H)-yl)piperidin-1-yl)ethyl)phenoxy)benzonitrile] | 126 ± 10 | significant drop in MtbTMPK inhibitory potency | ≥ 50 | > 64 |  | 
Cc1cn(C2CCN(CCc3ccccc3)CC2)c(=O)[nH]c1=O [Compound 21a, 5-Methyl-1-(1-phenethylpiperidin-4-yl)pyrimidine-2,4(1H,3H)-dione] | 680 ± 90 |  | > 50 | > 64 |  | loss/decrease in MtbTMPK inhibitory potency relative to 3 (MtbTMPK [1]; compared with compound 3): 40 fold
1-(1-(3-((3,4-Dichlorobenzyl)oxy)phenethyl)piperidin-4-yl)-5-methylpyrimidine-2,4(1H,3H)-dione [Compound 21p] |  |  |  |  |  | MIC ([2]; minimum concentration required to inhibit >99% growth of M. tuberculosis H37Rv in liquid culture, 7–14 days): 12.5 µM; IC50 (MRC-5 fibroblasts; cytotoxicity against MRC-5 fibroblasts): 4.22 µM
Cc1cn(C2CCN(CCc3cccc(OCc4cccc(Cl)c4)c3)CC2)c(=O)[nH]c1=O [Compound 21q, 1-(1-(3-((3-Chlorobenzyl)oxy)phenethyl)piperidin-4-yl)-5-methylpyrimidine-2,4(1H,3H)-dione] | 44 ± 2 |  | 25 (≈ 11.3 µg/mL) | 19.8 | 0.79 | 
Cc1cn(C2CCN(CCc3ccc(Oc4ccccc4)cc3)CC2)c(=O)[nH]c1=O [Compound 21e, 5-Methyl-1-(1-(4-phenoxyphenethyl)piperidin-4-yl)pyrimidine-2,4(1H,3H)-dione] | 160 ± 22 | negative effect on the inhibitory activity | > 50 | > 64 |  | 
Cc1ccc(Oc2cccc(CCN3CCC(n4cc(C)c(=O)[nH]c4=O)CC3)c2)cc1 [Compound 21f, 5-Methyl-1-(1-(3-(p-tolyloxy)phenethyl)piperidin-4-yl)pyrimidine-2,4(1H,3H)-dione] | 49 ± 7 |  | 19 (≈ 7.97 µg/mL) | 8.42 | 0.44 | 
Cc1cn(C2CCN(CCc3cccc(Oc4ccc(Cl)c(Cl)c4)c3)CC2)c(=O)[nH]c1=O [Compound 21g, 1-(1-(3-(3,4-Dichlorophenoxy)phenethyl)piperidin-4-yl)-5-methylpyrimidine-2,4(1H,3H)-dione] | 45 ± 2 |  | 19 (≈ 9.01 µg/mL) | 5.66 | 0.30 | 
Cc1cn(C2CCCN(CCc3cccc(Oc4ccccc4)c3)C2)c(=O)[nH]c1=O (centres unmarked) [Compound 23, 5-Methyl-1-(1-(3-phenoxyphenethyl)piperidin-3-yl)pyrimidine-2,4(1H,3H)-dione] |  |  |  |  |  | IC50 (MtbTMPK [1]): 192 ± 53 µM; loss/decrease in MtbTMPK inhibitory potency relative to 3 (MtbTMPK [1]; compared with compound 3): > 10 fold; MIC [2, 8]: > 50 µM; IC50 [3]: 21.8 µM
Cc1cn(C2CCN(CCc3cccc(Oc4ccc(Cl)cc4)c3)CC2)c(=O)[nH]c1=O [Compound 21h, 1-(1-(3-(4-Chlorophenoxy)phenethyl)piperidin-4-yl)-5-methylpyrimidine-2,4(1H,3H)-dione] | 49 ± 8 |  | 12.5 (≈ 5.5 µg/mL) | 5.81 | 0.46 | increase in IC50-value (MtbTMPK) relative to 21j (MtbTMPK [1]; compared with isomer 21j): 10 fold
Cc1cn(C2CCN(CCc3cccc(Oc4ccc(C(F)(F)F)cc4)c3)CC2)c(=O)[nH]c1=O [Compound 21m, 5-Methyl-1-(1-(3-(4-(trifluoromethyl)phenoxy)phenethyl)piperidin-4-yl)pyrimidine-2,4(1H,3H)-dione] | 135 ± 22 | significant drop in MtbTMPK inhibitory potency | 37 (≈ 17.5 µg/mL) | > 64 | >1.73 | 
Cc1cn(C2CCCN(Cc3cccc(Oc4ccccc4)c3)C2)c(=O)[nH]c1=O (centres unmarked) [Compound 1] |  |  |  |  |  | IC50 (MtbTMPK [4]; read-out: IC50 (MtbTMPK), reported; previously reported values; cited from earlier work): 21 µM
COc1ccc(Oc2cccc(CCN3CCC(n4cc(C)c(=O)[nH]c4=O)CC3)c2)cc1 [Compound 21i, 1-(1-(3-(4-Methoxyphenoxy)phenethyl)piperidin-4-yl)-5-methylpyrimidine-2,4(1H,3H)-dione] | 34 ± 5 |  | 25 (≈ 10.9 µg/mL) | > 64 | >2.56 | 
